These results are taken from patent US11440905B2, “Biheterocyclic compound” (SUMITOMO PHARMA CO., LTD., priority 2016, dated 2022).

The target in experiment [1] is T1, mouse semaphorin 3A (Sema3A) (Mus musculus, UniProt O08665).
T1 sequence (O08665 21-772): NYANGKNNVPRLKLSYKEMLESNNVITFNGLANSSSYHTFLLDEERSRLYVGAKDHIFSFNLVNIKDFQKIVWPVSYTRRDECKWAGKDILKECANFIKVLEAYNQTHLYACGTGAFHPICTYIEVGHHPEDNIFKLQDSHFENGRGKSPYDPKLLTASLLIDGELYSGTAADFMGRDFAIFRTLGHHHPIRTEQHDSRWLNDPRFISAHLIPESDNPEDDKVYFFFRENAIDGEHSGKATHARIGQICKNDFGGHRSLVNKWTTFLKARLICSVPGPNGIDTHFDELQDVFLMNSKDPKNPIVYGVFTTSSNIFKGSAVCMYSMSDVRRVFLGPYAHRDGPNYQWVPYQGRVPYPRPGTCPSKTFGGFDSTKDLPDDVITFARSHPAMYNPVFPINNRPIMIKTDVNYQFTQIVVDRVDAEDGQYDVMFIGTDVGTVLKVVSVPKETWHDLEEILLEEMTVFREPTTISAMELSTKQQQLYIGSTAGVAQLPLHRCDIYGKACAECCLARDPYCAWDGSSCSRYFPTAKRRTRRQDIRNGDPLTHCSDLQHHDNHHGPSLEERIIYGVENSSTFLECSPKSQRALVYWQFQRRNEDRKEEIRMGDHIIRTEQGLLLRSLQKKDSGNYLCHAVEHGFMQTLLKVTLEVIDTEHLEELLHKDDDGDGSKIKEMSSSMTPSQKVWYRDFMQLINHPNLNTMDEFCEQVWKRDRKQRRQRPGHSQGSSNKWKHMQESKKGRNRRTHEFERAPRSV
Nature of the experiment: Inhibitory activity for the collapse activity caused by Sema3A (growth cone collapse assay, Test 1). The class given is cell-based. Conditions: 1 μM test compound; chick embryo dorsal root ganglion; 3 units/mL mouse Sema3A; smaller value = more potent inhibition; read-out: residual ratio (%) of Sema3A activity (collapse assay). The method, then:
Inhibitory Activity for the Collapse Activity Caused by Sema3A
96 well-plate (SUMITOMO BAKELITE CO., LTD.) which was beforehand coated with polylysine was further coated with laminin (10 μL laminin, at room temperature, for 1 hour). To each well was added 100 μL of a medium (F12 medium containing 10% fetal bovine serum, 20 ng/mL NGF, 100 unit/mL penicillin, and 100 μg/mL streptomycin). Dorsal root ganglion harvested from 7-8 day-old chick embryo was inoculated thereto, and the culture medium was cultivated under the condition of 5% CO2 and 37° C. for 16-20 hours. And then, each test compound in various concentrations was added to the medium, each test medium was cultivated for 30 minutes, 3 units/mL mouse semaphorin 3A (Sema3A) was added to each medium, and then each test medium was cultivated for more 30 minutes. Then, glutaraldehyde was added to the medium, in which the final concentration of glutaraldehyde was 1%. The medium was left to stand at room temperature for 15 minutes to make the tissue fragment fixed, and the ratio of the retracted growth cone was measured under a microscope.

Experiment [2] relates to dry eye-model rat (exorbital lacrimal gland excised). Nature of the experiment: Drug evaluation for corneal disorder in dry eye-model rat (Test 3). The class given is in vivo. The settings on record: eye drop 1 μL per shot, 6 times per day, 4 weeks. The method, then:
(Test 3) Drug Evaluation for Corneal Disorder in Dry Eye-Model Rat
A model rat whose exorbital lacrimal gland is excised is generally used as a model for evaluating the drug efficacy for corneal disorder caused by dry eye. As for corneal disorder of the rat, hyaluronic acid (HA) and diquafosol sodium (DQS) which are existing drugs, and the present compound (Example 3) were administered to the rat, and each efficacy thereof was evaluated.
Male SD rat was anesthetized with inhalational isoflurane, and the exorbital lacrimal gland thereof was excised to prepare a dry eye-model rat (the conditions to prepare the dry eye-model rat can be changed as necessary, for example, by combining the excision of exorbital lacrimal gland with the medication of streptozotocin or the like). […]
The site of corneal disorder was stained with a fluorescein (FITC) solution, and the extent of the disorder was evaluated with the score gained from the following method. […]
The statistical significance for the drug effect was evaluated by nonparametric Tukey's multiple comparison test, in which the result of each test group was compared with that of the control (intact) group which was not operated by excising exorbital lacrimal gland.

In experiment [3] the test system is dry eye-model rat associated with the dysfunction of corneal nerves. Nature of the experiment: Drug evaluation for the dysfunction of corneal nerves in dry eye rat model (Test 4). The class given is in vivo. The settings on record: lacrimal gland excision plus streptozotocin 55 mg/kg i.p.; eye drop 1 μL per shot, 6 times per day, 4 weeks; 0.3% HA, 3% DQS, 0.1% Example 3. The method, then:
Drug Evaluation for the Dysfunction of Corneal Nerves in Dry Eye Rat Model
Male SD rat was anesthetized with inhalational isoflurane. The exorbital lacrimal gland thereof was excised, and at the same day, streptozotocin was administered intraperitoneally to the rat (55 mg/kg) to prepare a dry eye-model rat associated with the dysfunction of corneal nerves. Several weeks after the operation, 0.3% HA ophthalmic solution, 3% DQS ophthalmic solution, and 0.1% the ophthalmic solution of the present compound (Example 3) were administered to the rat in an awareness at 1 μL per shot, 6 times per day, for 4 weeks.
The cornea of the rat was softly held by hand. The drug effect for the dysfunction of corneal nerves was evaluated through blink reflex by contacting the cornea with the nylon filament of cochet-bonnet corneal esthesiometer. First, the tip of the nylon filament (length: 60 mm, diameter: 0.12 mm) was made to almost-vertically contact with the center of cornea, and the nylon filament was made to curve a little. […]
The statistical significance for the drug effect was evaluated by confirming that P value is less than 5% in Student's t test between the intact group and the PBS group, and then carrying out Student's t test between the intact group and the present compound group. […]

The target of experiment [4] is T2, mouse Sema3A binding to CHO cells stably-expressing mouse neuropilin (Mus musculus, UniProt O08665).
T2 construct: host or cells: CHO cells stably expressing the neuropilin partner
T2 sequence (O08665 21-772): T1 sequence (O08665 21-772)
Nature of the experiment: Inhibitory activity for the neuropilin-binding activity caused by Sema3A (Test 2). The settings on record: 1 h, AP-Sema3A, read-out: residual ratio (%) of avidity (Sema3A-neuropilin binding); for remaining activity at 100 µM: 100 μM test compound, smaller value = more potent binding inhibition. The method, then:
(Test 2) Inhibitory Activity for the Neuropilin-Binding Activity Caused by Sema3A
To each well of 96 well-plate (IWAKI) was seeded CHO cells stably-expressing mouse neuropilin, the cells were cultivated in F12 medium (10% fetal bovine serum, 100 units/mL penicillin, and 100 μg/mL streptomycin) under the condition of 5% CO2 and 37° C. for 18 hours. And then, the culture medium was removed, and mouse Sema3A which included each test compound and alkaline phosphatase (AP) in various concentrations was added thereto, and the culture was reacted at room temperature for more one hour. Then, the reaction solution was removed, the residual cells were washed with HBSS solution (0.25% BSA) and dissolved in a solution (10 mM Tris including 1% Triton X-100) at 65° C. for one hour, and the AP activity thereof was measured.

Counter-ions that a name gives are not always drawn.

As to `Cn1cc(-c2coc3cc(O)c(O)c(C(=O)OCc4cn(CC(=O)N[C@@H](CCC(=O)O)C(=O)O)nn4)c3c2=O)c(=O)c2cc(O)c(O)cc21` [Example 3, N-({4-[({[3-(6,7-Dihydroxy-1-methyl-4-oxo-1,4-dihydroquinolin-3-yl)-6,7-dihydroxy-4-oxo-4H-chromen-5-yl]carbonyl}oxy)methyl]-1H-1,2,3-triazol-1-yl}acetyl)-L-glutamic acid], the remaining activity at 1 µM in experiment [1] was determined as 4%. Besides, the “therapeutic effect for corneal disorder caused by dry eye (fluorescein staining score 0-3)” value in experiment [2] (0.3% HA, 3% DQS, Example 3 ophthalmic solution, compared with intact group) is “potent therapeutic effect”. The “improvement of corneal disorder compared with the vehicle-administration group (PBS)” value in experiment [2] (** denotes p<0.01) is “significant improvement”. Moreover, the “therapeutic effect for the dysfunction of corneal nerves (corneal perception, blink reflex, Cochet-Bonnet esthesiometer)” value in experiment [3] is “marked therapeutic effect”.

For the compound `Cn1cc(-c2coc3cc(O)c(O)c(C(=O)OCCOCCC(=O)O)c3c2=O)c(=O)c2cc(O)c(O)cc21` [Example 20, 3-[2-({[3-(6,7-Dihydroxy-1-methyl-4-oxo-1,4-dihydroquinolin-3-yl)-6,7-dihydroxy-4-oxo-4H-chromen-5-yl]carbonyl}oxy)ethoxy]propanoic acid], the remaining activity at 100 µM in experiment [4] worked out at 56.5%.

As for `Cn1cc(-c2coc3cc(O)c(O)c(C(=O)OCCOCCC(=O)N[C@@H](CCC(=O)O)C(=O)O)c3c2=O)c(=O)c2cc(O)c(O)cc21` [Example 21, N-{3-[2-({[3-(6,7-Dihydroxy-1-methyl-4-oxo-1,4-dihydroquinolin-3-yl)-6,7-dihydroxy-4-oxo-4H-chromen-5-yl]carbonyl}oxy)ethoxy]propanoyl}-L-glutamic acid], the remaining activity at 100 µM in experiment [4] is 58.5%.

In the case of `Cn1cc(-c2coc3cc(O)c(O)c(C(=O)OCCN(CC(=O)O)CC(=O)O)c3c2=O)c(=O)c2cc(O)c(O)cc21` [Example 22, 2,2′-{[2-({[3-(6,7-Dihydroxy-1-methyl-4-oxo-1,4-dihydroquinolin-3-yl)-6,7-dihydroxy-4-oxo-4H-chromen-5-yl]carbonyl}oxy)ethyl]imino}-di-acetic acid], the remaining activity at 100 µM in experiment [4] came to 62.1%.

In the case of `CN1CCN(C)C(COC(=O)c2c(O)c(O)cc3occ(-c4cn(C)c5cc(O)c(O)cc5c4=O)c(=O)c23)C1` (stereo not drawn) [Example 25, (1,4-Dimethylpiperazin-2-yl)methyl 3-(6,7-dihydroxy-1-methyl-4-oxo-1,4-dihydroquinolin-3-yl)-6,7-dihydroxy-4-oxo-4H-chromene-5-carboxylate hydrochloride], the remaining activity at 100 µM in experiment [4] was 90.5%.

For `Cn1ccnc1COC(=O)c1c(O)c(O)cc2occ(-c3cn(C)c4cc(O)c(O)cc4c3=O)c(=O)c12` [Example 26, (1-Methyl-1H-imidazol-2-yl)methyl 3-(6,7-dihydroxy-1-methyl-4-oxo-1,4-dihydroquinolin-3-yl)-6,7-dihydroxy-4-oxo-4H-chromene-5-carboxylate hydrochloride], in experiment [4] (10 μM test compound (footnote *)), the remaining activity at 10 µM came to 97.8%.

As to `Cn1cc(-c2coc3cc(O)c(O)c(C(=O)OCCN4CCC(O)C4)c3c2=O)c(=O)c2cc(O)c(O)cc21` (stereo not drawn) [Example 28, 2-(3-Hydroxypyrrolidin-1-yl)ethyl 3-(6,7-dihydroxy-1-methyl-4-oxo-1,4-dihydroquinolin-3-yl)-6,7-dihydroxy-4-oxo-4H-chromene-5-carboxylate], in experiment [4], the remaining activity at 100 µM was determined as 87.1%.

On to `Cn1cc(-c2coc3cc(O)c(O)c(C(=O)OCCOCCOCCOCCOCCO)c3c2=O)c(=O)c2cc(O)c(O)cc21` [Example 29, 14-Hydroxy-3,6,9,12-tetraoxatetradec-1-yl 3-(6,7-dihydroxy-1-methyl-4-oxo-1,4-dihydroquinolin-3-yl)-6,7-dihydroxy-4-oxo-4H-chromene-5-carboxylate], for which the remaining activity at 100 µM in experiment [4] amounted to 49.3%.

On to `COC(=O)CCOCCOC(=O)c1c(O)c(O)cc2occ(-c3cn(C)c4cc(O)c(O)cc4c3=O)c(=O)c12` [Example 31, 2-(3-Methoxy-3-oxopropoxy)ethyl 3-(6,7-dihydroxy-1-methyl-4-oxo-1,4-dihydroquinolin-3-yl)-6,7-dihydroxy-4-oxo-4H-chromene-5-carboxylate], for which, in experiment [4], the remaining activity at 100 µM came out at 69.4%.
